{
  "source": "patent US20260356901A1",
  "about": "“ONCOLYTIC PEPTIDES” (The Johns Hopkins University, priority 2023, published 2026)",
  "key": {"4T1 cells": {"tested_on": "4T1 cells", "assay": "LDH release assay (CyQUANT) in 4T1 cells", "assay_type": "cell-based, murine", "conditions": "pre-treated 50 μM inhibitor 30 minutes, then 100 μM CKS1 6 hours", "method": "FIG. 3A is a graph of cell viability of 4T1 murine triple negative breast cancer cells (TNBC) after 100 μM or 20 μM CKS1 treatment measured by real-time cell analyzer (RTCA). Means±SEM, representative of N=3. FIG. 3B is a graph of lactate dehydrogenase (LDH) release in 4T1 cells pre-treated with 50 μM pan-caspase inhibitor Z-VAD for 30 minutes or 50 μM RIPK1 inhibitor Nec-1s for 30 minutes then treated with 100 μM CKS1 for 6 hours. LDH release in the supernatant was measured by the CyQUANT LDH cytotoxicity assay. Means±SEM, N=3, Dunnett's test (***p<0.005). […] The release of LDH in the supernatant was measured and was normalized to the amount of LDH released from cells treated with lysis buffer. […]\nFIG. 5A is a graph of the release of LDH in the supernatant measured after treating 4T1 cells with 100 μM of the indicated peptides for 6 hours. […]\nTo determine whether CKS1 functions as an oncolytic peptide, the cell viability of 4T1 murine breast cancer cells was observed after CKS1 treatment using xCELLigence Real-Time Cell Analyzer (Agilent). In this method, the binding of cells to gold electrodes is detected as electrical impedance and graphed as arbitrary units of cell index in real time. […] The release of lactate dehydrogenase (LDH) was also quantified in the culture media after CKS1 treatment. […]"}, "healthy cells": {"tested_on": "healthy cells", "assay": "LDH assay against cancer cells not included in NCI-60 and healthy cells", "assay_type": "cell-based", "method": "LDH assay 1.5×10^4 cells were seeded in a 96 well plate and incubated overnight. The cells were washed once, and the medium was replaced with serum free media. Cells were treated for the indicated time and concentration. CyQUANT LDH cytotoxicity assay (Invitrogen, Carlsbad, CA) was used following the manufacturer's instructions."}, "U2OS cells": {"tested_on": "U2OS cells", "assay": "LDH release assay in U2OS cells", "assay_type": "cell-based, human", "conditions": "6 hours", "method": "(§1) FIG. 3A is a graph of cell viability of 4T1 murine triple negative breast cancer cells (TNBC) after 100 μM or 20 μM CKS1 treatment measured by real-time cell analyzer (RTCA). Means±SEM, representative of N=3. FIG. 3B is a graph of lactate dehydrogenase (LDH) release in 4T1 cells pre-treated with 50 μM pan-caspase inhibitor Z-VAD for 30 minutes or 50 μM RIPK1 inhibitor Nec-1s for 30 minutes then treated with 100 μM CKS1 for 6 hours. LDH release in the supernatant was measured by the CyQUANT LDH cytotoxicity assay. Means±SEM, N=3, Dunnett's test (***p<0.005). FIGS. 3C-3G are graphs of LDH release in human osteosarcoma U2OS cells, murine fibrosarcoma MCA205 cells, murine colon carcinoma CT26 cells, murine normal NIH/3T3 fibroblasts, and HUVECs, respectively, treated with the indicated concentration of CKS1 for 6 hours. The release of LDH in the supernatant was measured and was normalized to the amount of LDH released from cells treated with lysis buffer. Means±SEM, N=3, Dunnett's test (**p<0.01, ***p<0.005). FIG. 3H is a graph of the incorporation of BrdU in HUVECs treated with CKS1. Means±SEM, N=3, Dunnett's test (**p<0.01, ***p<0.005).\n(§2) LDH assay 1.5×10^4 cells were seeded in a 96 well plate and incubated overnight. The cells were washed once, and the medium was replaced with serum free media. Cells were treated for the indicated time and concentration. […]"}, "MCA205 cells": {"tested_on": "MCA205 cells", "assay": "LDH release assay in MCA205 cells", "assay_type": "cell-based, murine", "conditions": "MCA205, 6 hours", "method": "as §1, §2"}, "CT26 cells": {"tested_on": "CT26 cells", "assay": "LDH release assay in CT26 cells", "assay_type": "cell-based, murine", "conditions": "CT26, 6 hours", "method": "as §1, §2"}, "[1]": {"tested_on": "NIH/3T3 normal fibroblasts", "assay": "LDH release assay in NIH/3T3 cells", "assay_type": "cell-based, murine", "conditions": "6 hours", "method": "as §1, §2"}, "HUVECs": {"tested_on": "HUVECs", "assay": "LDH release assay in HUVECs", "assay_type": "cell-based, human", "conditions": "6 hours", "method": "as §1, §2"}, "Solubility in water": {"assay": "Solubility in water", "assay_type": "physicochemical", "conditions": "data not shown", "excerpt": "Peptides The peptides were synthesized by Genscript (Piscataway, NJ) using a solid-phase peptide synthesis technique. The purity was >90% as verified by HPLC and MS analyses. The peptides were solubilized in water."}, "[2]": {"conditions": "other reported oncolytic peptides; cited from earlier work"}},
  "note": "Where two headings read alike, the source gives them in different places. Square brackets hold non-standard residues; d marks the D form. Ends that are not written are not given here. Peptide text beside a SMILES is read from it. * marks the point of attachment. Dip = N[C@H](C(=O)O)C(c1ccccc1)c1ccccc1; Cbz = O=C(OCc1ccccc1)*; CH2F = FC*",
  "data": [
    {"compound": "CC(NC(=O)C(NC(=O)OCc1ccccc1)C(C)C)C(=O)NC(CC(=O)O)C(=O)CF", "note": "(stereo not drawn) [Z-VAD] (Cbz-Val-Ala-Asp-CH2F; configuration not given here)", "values": [
      {"measurement": "inhibition of CKS1-induced LDH release by pretreatment", "setting": "4T1 cells", "result": "did not inhibit the release of LDH"}
    ]},
    {"compound": "NGRKAKLNPASIVKKIIKKILKS [NF27]", "values": [
      {"measurement": "toxicity against healthy cells compared to cancer cells", "setting": "healthy cells", "result": "significantly lower toxicity"}
    ]},
    {"compound": "CN1C(=O)NC(Cc2c[nH]c3c(Cl)cccc23)C1=O", "note": "(centres unmarked) [Nec-1s, necrostatin-1 stable]", "values": [
      {"measurement": "inhibition of CKS1-induced LDH release by pretreatment", "setting": "4T1 cells", "result": "did not inhibit the release of LDH"}
    ]},
    {"compound": "NGRKACLNPASPIVKKIIEKMLNS [CKS1]", "values": [
      {"measurement": "cytotoxicity (LDH release)", "setting": "U2OS cells", "result": "effective"},
      {"measurement": "cytotoxicity (LDH release)", "setting": "MCA205 cells", "result": "effective"},
      {"measurement": "cytotoxicity (LDH release)", "setting": "CT26 cells", "result": "effective"},
      {"measurement": "cell death (LDH release) in normal cells", "setting": "[1]", "result": "did not induce cell death"},
      {"measurement": "cell death (LDH release) in normal cells", "setting": "HUVECs", "result": "did not induce cell death"},
      {"measurement": "solubility in water", "setting": "Solubility in water", "result": "high solubility in water"}
    ]},
    {"compound": "NCCCC[C@H](NC(=O)[C@@H](NC(=O)[C@H](Cc1c[nH]c2ccccc12)NC(=O)[C@H](CCCCN)NC(=O)[C@H](CCCCN)NC(=O)[C@H](Cc1c[nH]c2ccccc12)NC(=O)[C@H](Cc1c[nH]c2ccccc12)NC(=O)[C@H](CCCCN)NC(=O)[C@@H](N)CCCCN)C(c1ccccc1)c1ccccc1)C(N)=O", "note": "[LTX-315] (H-KKWWKKW[Dip]K-NH2)", "values": [
      {"measurement": "solubility in water", "setting": "[2]", "result": "not soluble in water"}
    ]},
    {"compound": "IVKKIIEKMLNS [SEQ ID NO: 42, IVKKIIEKMLNS]", "values": [
      {"measurement": "solubility in water", "setting": "Solubility in water", "result": "not soluble in water"}
    ]}
  ]
}
